Experimental data published in US20150225454A1, “TETRABRANCHED PEPTIDES AND ANALOGUES AS A NEW CLASS OF ANTIMICROBIALS AND THEIR PREPARATION THEREOF” (priority 2012, published 2015).
≈ marks a conversion by molar mass, not a printed value. Like-named read-outs stand apart in the source and are kept apart here. Where a SMILES comes first, the peptide text is derived from it. Bridges are numbered along the chain shown (N, C = ends). Roman numbers before positions name the chains, in order.

What was measured:
IOBA-NHC cells = assay type: cell-based, human; settings: 24 h incubation; read-out: EC50 (concentration that reduces the viable cells by 50%)
Summary of the method: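 Subconfluent (~70%) IOBA-NHC conjunctival cells, passages 50–80, seeded ~10,000/well and grown 24 h at 37 °C in supplemented DMEM/F12 with 10% FBS. Exposed to peptide at 0.22–225 μM; cytotoxicity followed over time by MultiTox-Fluor […] fluorescence (ex 485/em 520 nm).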

C. albicans [1] = assay: Candidacidal activity (cell viability) in the presence of metal ions; assay type: cell-based; settings: 5.5 μM
Procedure: To study the effects of metal ions on viability, the broth solution containing C. albicans (OD600=0.4-0.6) was adjusted to appropriate final concentrations of metal ions, incubated with 5.5 μM of B4010 for 6 h and the cell viability was determined as before after 48 h.

C. albicans [2] = assay: diS-C3-5 membrane depolarisation assay; assay type: cell-based
Procedure: Change in membrane potential of C. albicans upon addition of B4010 was monitored by the release of potential sensitive probe diS-C3-5 dye. Briefly, 1 ml of overnight grown mid-log phase Candida cells in 5 mM HEPES buffer (pH 7.0) was mixed with 10 μM diS-C3-5 dye and incubated at 37° C. for 1-2 h in a thermo shaker. 800 μL of the dye-loaded cell suspension was transferred to a stirred quartz cuvette and the change in fluorescence intensity was monitored at an emission wavelength (λem) of 670 nm (excitation wavelength, 622 nm) using a Quanta Master spectrofluorimeter (Photon Technology International, NJ, USA). The excitation and emission bandwidths were set at 1 and 2 nm, respectively. Once a constant fluorescence level was achieved, 10 μL of concentrated peptide solution in HEPES buffer was added so that the final concentration of peptide was 0.22-22 μM. The change in fluorescence intensity was monitored continuously for 1 or 2 h. To study the effects of energy poisons and ion-channel inhibitors, the additives were added prior to the addition of 5.5 μM B4010. The change in fluorescence intensity was monitored as before.

S. cerevisiae = assay type: cell-based
Procedure: A few identical colonies from WT and mutant strains were immediately inoculated and grown overnight in SD broth containing 0.1 mg/ml ampicilin at 30° C. Cells were harvested by centrifugation, washed with sterile water and frozen. Cells were plated again on SD agar plates and incubated at 37° C. for 48 h. Two or three identical colonies of the mutant strains were collected and inoculated in SD broth. Peptides were dissolved in sterile water and mixed with WT and mutant strains and incubated at 37° C. for 48 or 72 h in a test tube. The lowest concentration of the peptide that inhibited the growth of the yeast strain was determined by visual inspection.

C. albicans [3] = assay type: cell-based
Procedure: For the effects of energy poisons and ion channel inhibitors, yeast cells (10^5-10^6 CFU/ml) were incubated for 2 h with or without additives at 37° C. A final concentration of 5.5 μM B4010 peptide was added to the cell suspension and incubated further for another 1.5 h at 37° C. Each cell suspension was further diluted and 100 μl of the cells were plated and incubated at 37° C. SDA plates with additives (and no peptide) served as the positive control. Cell viability was obtained by counting the number of colonies formed in each plate after 48 h incubation at 37° C. The final concentrations of the additives were: CCCP (5 μM), NaN3 (5 mM), 4-AP (1 mM), NPPB (0.5 mM), […] (1 mM) and tetra ethyl ammonium chloride (15 mM). The reported values were averages of two independent duplicate experiments. Control experiments with all the additives were also performed to assess the toxicity of the additives to C. albicans.

`CC(C)[C@H](NC(=O)[C@H](CCCCN)NC(=O)[C@H](CCCNC(=N)N)NC(=O)CNC(=O)[C@@H](N)CCCNC(=N)N)C(=O)N[C@H](C(=O)N[C@@H](CCCNC(=N)N)C(=O)N[C@@H](CCCNC(=N)N)C(=O)NCCCC[C@H](NC(=O)[C@H](CCCNC(=N)N)NC(=O)[C@H](CCCNC(=N)N)NC(=O)[C@@H](NC(=O)[C@@H](NC(=O)[C@H](CCCCN)NC(=O)[C@H](CCCNC(=N)N)NC(=O)CNC(=O)[C@@H](N)CCCNC(=N)N)C(C)C)C(C)C)C(=O)NCCCC[C@H](NC(=O)[C@H](CCCCNC(=O)[C@H](CCCNC(=N)N)NC(=O)[C@H](CCCNC(=N)N)NC(=O)[C@@H](NC(=O)[C@@H](NC(=O)[C@H](CCCCN)NC(=O)[C@H](CCCNC(=N)N)NC(=O)CNC(=O)[C@@H](N)CCCNC(=N)N)C(C)C)C(C)C)NC(=O)[C@H](CCCNC(=N)N)NC(=O)[C@H](CCCNC(=N)N)NC(=O)[C@@H](NC(=O)[C@@H](NC(=O)[C@H](CCCCN)NC(=O)[C@H](CCCNC(=N)N)NC(=O)CNC(=O)[C@@H](N)CCCNC(=N)N)C(C)C)C(C)C)C(=O)N[C@@H](CCCCN)C(=O)O)C(C)C` [Peptide B4010] (I: H-RGRKVVRRKKK-OH / II: H-RGRKVVRRK / III: H-RGRKVVRR / IV: H-RGRKVVRR; amide I:9-IV:C, I:10-II:C, II:9-III:C; N-terminus and C-terminus assumed) was tested, and the EC50 (IOBA-NHC cells) was 220 µM, the candidacidal activity (C. albicans [1]; high concentration of KCl) was “slight decrease in the candidacidal activity” and the cell viability (C. albicans [1]; presence of monovalent and divalent cations) was “complete loss of viable cells”. The “reduction in fluorescence intensity in azide-treated cells compared to control cells” value (C. albicans [2]; 5 mM NaN3 before B4010) was ~25 fold, the “time course of depolarization” value (C. albicans [2]; upon addition of B4010) was “occurred instantaneously” and the MIC (S. cerevisiae; RH448, Wildtype, Ergosterol (77%)) was 5.5 µM (≈ 25.1 µg/mL). It also gave an MIC (S. cerevisiae; RH5684, erg6Δ) of 2.8 µM (≈ 12.8 µg/mL), an MIC (S. cerevisiae; RH5812, erg2Δ) of 1.4 µM (≈ 6.39 µg/mL) and an MIC (S. cerevisiae; RH5930, erg3Δerg6Δ) of 1.4 µM (≈ 6.39 µg/mL). It also gave an MIC (S. cerevisiae; RH6826, 7-deoxycholesterol) of 2.8 µM (≈ 12.8 µg/mL), an MIC (S. cerevisiae; RH6827, Campasterol) of 2.8 µM (≈ 12.8 µg/mL) and an MIC (S. cerevisiae; RH6829, Cholesterol) of 2.8 µM (≈ 12.8 µg/mL). For the same compound, the “decrease in MIC of ergΔ mutants compared to the wild type” value (S. cerevisiae; all the ergΔ mutants) was 2-4 fold, the “decrease in MIC compared to the wild type” value (S. cerevisiae; erg2Δ, erg3Δ, erg3Δerg6Δ and erg4Δerg5Δ) was 4 folds and the “increased sensitivity compared to the wild type” value (S. cerevisiae; erg2Δerg6Δ and erg6Δ) was 2 fold. The loss of viability (C. albicans [3]) was 54±6%, the “protection from B4010-induced lethality” value (C. albicans [3]; cells pre-incubated with CCCP) was “partial protection” and the viability (C. albicans [3]; cells pretreated with TEA and 4-AP) was “significant loss of viability”. The “protection from B4010-induced lethality” value (C. albicans [3]; presence of NaN3) was “complete protection”.
